# From ChEMBL document CHEMBL1128991, “Trishomocubanes, a new class of selective and high affinity ligands for the sigma binding site” (Bioorg Med Chem Lett, 1996)
# pKi: −log10 of the molar value.
# Assay: Binding affinity towards NMDA receptor ion channel (PCP site) was determined
row,pKi,Structure (SMILES)
1,< 5.00,c1ccc(CNC2C3C4CC5C6C4C2C6C2(OCCO2)C53)cc1 (stereo unspecified)
2,< 5.00,Ic1cccc(CNC2C3C4CC5C6C4C2C6C2(OCCO2)C53)c1 (stereo unspecified)
3,< 5.00,Brc1cccc(CNC2C3C4CC5C6C4C2C6C2(OCCO2)C53)c1 (stereo unspecified)
4,< 5.00,Ic1ccc(CNC2C3C4CC5C6C4C2C6C2(OCCO2)C53)cc1 (stereo unspecified)

row,Structure (SMILES),pKi
1,OC12C3C4CC5C6C4C1C6C(C53)N2Cc1cccc(Br)c1 (stereo unspecified),< 5.00
2,OC12C3C4CC5C6C4C1C6C(C53)N2Cc1ccccc1 (stereo unspecified),< 5.00
